{
  "source": "patent US8637443B2",
  "about": "“Cleaning compositions and methods comprising a hydrofluoro-olefin or hydrochlorofluoro-olefin solvent” (Honeywell International Inc., priority 2008, dated 2014)",
  "experiment": "toxicity (comparative statement, no method given)",
  "conditions": "in comparison to CF3CH═CF2 (HFO-1225zc)",
  "data": [
    {"compound": "FC=C(F)C(F)(F)F", "note": "[HFO-1225yez, 1,1,1,2,3 pentafluoropropene]", "values": [
      {"measurement": "degree of toxicity", "value": "relatively low degree of toxicity"}
    ]}
  ]
}
